Measurements from US9499495B2, “Quinazolines and azaquinazolines as dual inhibitors of RAS/RAF/MEK/ERK and PI3K/AKT/PTEN/mTOR pathways” (Asana Biosciences, LLC, priority 2013, dated 2016).
pIC50: −log10 of the molar value.

Legend:
RKO cells = experiment: XTT assay for cell viability, RKO cells; type: cell-based; settings: Homo sapiens, 72 h
Description: Cell lines (A375 ATCC No. CRL-1619, A2058 ATCC No. CRL-11147 and RKO ATCC No. CRL-2577, American Type Culture Collection (ATCC), Manassas Va.) once attaining ˜80% confluency were trypsinized, centrifuged and resuspended in fresh media. Cells (1000-2000/per well) were seeded in 96-well plate and incubated over-night at 37° C. in a 5% CO2 incubator. Compound dilutions were prepared in 100% DMSO followed by dilutions in the respective media. The cells were treated with NCEs for 72 h at 37° C. in 5% CO2 incubator. After 72 h, freshly prepared XTT (1 mg/ml)/PMS (25 μM) solution was added, incubated for 2 to 3 h at 37° C. and the absorbance was measured at 450 nm using an ELISA plate reader. Keeping DMSO control as 100%, the effect of the compound to inhibit the cell proliferation was calculated and the GI50 values were determined using sigmoidal dose response curve fit in GraphPad Prism® v5 software.

pERK in A375 cells = experiment: In Cell Western (ICW) assay, pERK in A375 cells; type: cell-based; settings: Homo sapiens, A-375, 3 h treatment
Procedure, shortened: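 RKO or A375 cells were exposed to compounds for 3 h at 37 °C, then fixed and stained in-cell with antibodies to pERK1/2 (T202/Y204), pS6RP or pAKT T308, followed by a Eu-labelled secondary. Time-resolved fluorescence (340/615 nm) was normalized to Hoechst, and IC50 values were fitted sigmoidally against DMSO as 0% inhibition.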

PI3Kα = molecular target: T1, PI3Kα (Homo sapiens, UniProt P42336); experiment: PI3 Kinase alpha TR-FRET assay; type: biochemical
T1 construct: made in house; host or cells: SF9 cells
Description: Compound inhibition for PI3Kα was determined in a homogeneous TR-FRET assay using a PI3Kα assay kit (Millipore, US, Catalog #33-016). The PI3 kinase catalyzes phosphorylation of […] (PIP2) to phosphatidylinositol 3,4,5-trisphosphate (PIP3) in the presence of ATP and Mg^2+. The PIP3 product is detected by displacement of biotin-PIP3 from an energy transfer complex consisting of Europium labeled anti-GST monoclonal antibody, a GST-tagged pleckstrin homology (PH) domain, biotinylated PIP3 and Streptavidin-Allophycocyanin (APC). Excitation of Europium in the complex results in an energy transfer to the APC and a fluorescence emission at 665 nm.
Compounds tested were dissolved in DMSO and directly distributed into 384-well plates at a volume of 0.5 μL. P110/P85a/PIP2 mixture (14.5 μL) was added to compound wells and incubated for 30 min at rt […]. P110/P85a was expressed in SF9 cells and purified in-house. 5 ng P110/P85a was used in the assay. The kinase reaction was started by the addition of ATP. The assay concentrations of both PIP2 and ATP were 40 μM. The reaction mixture was incubated for 30 min and was terminated by the addition of stop mix and detection mix. Fluorescence was measured at 615 and 665 nm upon excitation at 340 nm in a Victor V5 fluorometer (Perkin Elmer, US). The fluorescence emission ratio at 665 to 615 nm, proportional to the kinase activity, was plotted against the compound concentration to generate dose-response curves and IC50 values were determined.

A375 cells = experiment: XTT assay for cell viability, A375 cells; type: cell-based; settings: Homo sapiens, A-375, 72 h
Procedure, shortened: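 RKO and A375 cells seeded at 1000-2000/well overnight, then exposed to compound for 72 h at 37° C., 5% CO2. XTT (1 mg/ml)/PMS (25 μM) added for 2-3 h; absorbance at 450 nm. Growth relative to DMSO control (100%); GI50 from sigmoidal dose-response fit.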

B-RAFV600E = molecular target: T2, B-RAFV600E (Homo sapiens, UniProt P15056, V600E); experiment: B-RAFV600E radiometric assay; type: biochemical; settings: read-out: Kinase assay B-Raf
T2 construct: purchased Millipore, USA 14-557
Procedure, shortened: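 B-RAFV600E was preincubated 45 min at rt with compound in 1% DMSO. MEK-K97M (0.5 μg), 5 μM final cold ATP and [γ-32P]ATP were then added for 2 h at rt. Phosphorylated MEK was captured on P81 paper and scintillation-counted; IC50 came from a sigmoidal dose-response fit.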

mTOR kinase = molecular target: T3, mTOR kinase (Homo sapiens, UniProt P42345); experiment: mTOR kinase TR-FRET assay; type: biochemical
T3 construct: purchased Millipore, US
Procedure, shortened: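 TR-FRET with ULight-p70 S6K (Thr 389) peptide (50 nM) and 20 μM ATP in 50 mM HEPES pH 7.5, 1 mM EGTA, 3 mM MnCl2; compound pre-incubated with enzyme before substrate addition, reaction at rt, EDTA-stopped. Eu anti-phospho antibody read 665/615 nm; IC50 from sigmoidal dose-response fit.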

T1 sequence (P42336 whole entry, species assumed): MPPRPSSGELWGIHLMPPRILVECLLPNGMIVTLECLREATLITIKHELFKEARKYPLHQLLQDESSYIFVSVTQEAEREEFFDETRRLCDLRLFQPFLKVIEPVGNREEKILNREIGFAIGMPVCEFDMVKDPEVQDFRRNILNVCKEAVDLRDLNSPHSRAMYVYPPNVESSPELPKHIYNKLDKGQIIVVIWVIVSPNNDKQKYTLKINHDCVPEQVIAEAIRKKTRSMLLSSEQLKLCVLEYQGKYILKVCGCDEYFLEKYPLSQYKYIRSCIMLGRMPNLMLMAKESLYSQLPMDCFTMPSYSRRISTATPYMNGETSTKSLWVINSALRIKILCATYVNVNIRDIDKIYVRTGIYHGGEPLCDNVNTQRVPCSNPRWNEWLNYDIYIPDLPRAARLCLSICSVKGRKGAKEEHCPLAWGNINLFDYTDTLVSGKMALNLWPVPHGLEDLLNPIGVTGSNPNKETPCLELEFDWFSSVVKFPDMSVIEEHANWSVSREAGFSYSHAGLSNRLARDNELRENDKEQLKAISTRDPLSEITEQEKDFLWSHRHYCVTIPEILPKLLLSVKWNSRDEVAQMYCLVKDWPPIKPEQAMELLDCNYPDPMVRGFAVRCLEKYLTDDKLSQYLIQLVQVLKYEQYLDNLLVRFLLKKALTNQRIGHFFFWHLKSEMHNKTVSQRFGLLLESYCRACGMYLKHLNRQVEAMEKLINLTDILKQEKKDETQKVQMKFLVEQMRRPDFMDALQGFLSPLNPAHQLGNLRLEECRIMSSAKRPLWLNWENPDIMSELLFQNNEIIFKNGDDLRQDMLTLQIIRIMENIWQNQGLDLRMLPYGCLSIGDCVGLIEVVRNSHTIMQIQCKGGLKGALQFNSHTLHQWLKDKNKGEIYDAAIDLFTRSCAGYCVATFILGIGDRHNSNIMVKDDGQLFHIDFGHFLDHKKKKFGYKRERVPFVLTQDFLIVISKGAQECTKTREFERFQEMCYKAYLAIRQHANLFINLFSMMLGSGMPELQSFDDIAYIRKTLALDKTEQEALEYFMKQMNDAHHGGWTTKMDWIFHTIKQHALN
T1 sequence (P27986 whole entry partner, species assumed): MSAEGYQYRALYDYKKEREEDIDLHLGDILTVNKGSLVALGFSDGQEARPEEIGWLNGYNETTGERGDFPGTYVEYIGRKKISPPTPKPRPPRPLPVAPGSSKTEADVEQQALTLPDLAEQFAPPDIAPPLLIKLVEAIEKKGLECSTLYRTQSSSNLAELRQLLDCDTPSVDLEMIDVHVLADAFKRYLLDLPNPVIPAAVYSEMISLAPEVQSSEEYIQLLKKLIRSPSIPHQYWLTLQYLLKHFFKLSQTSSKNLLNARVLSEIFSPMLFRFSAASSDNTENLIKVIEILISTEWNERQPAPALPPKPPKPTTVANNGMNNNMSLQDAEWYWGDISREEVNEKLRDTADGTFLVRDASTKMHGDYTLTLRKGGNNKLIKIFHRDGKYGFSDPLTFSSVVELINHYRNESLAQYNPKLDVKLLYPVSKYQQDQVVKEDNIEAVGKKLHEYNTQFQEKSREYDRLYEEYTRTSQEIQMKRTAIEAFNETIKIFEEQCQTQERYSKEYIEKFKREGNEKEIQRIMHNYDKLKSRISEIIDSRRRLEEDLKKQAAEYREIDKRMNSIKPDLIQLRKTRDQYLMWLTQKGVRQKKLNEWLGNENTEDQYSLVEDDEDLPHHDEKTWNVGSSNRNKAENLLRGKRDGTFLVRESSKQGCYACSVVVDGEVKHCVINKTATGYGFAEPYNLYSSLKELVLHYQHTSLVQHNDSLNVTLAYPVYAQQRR
T3 sequence (P42345 1362-2549 limits assumed): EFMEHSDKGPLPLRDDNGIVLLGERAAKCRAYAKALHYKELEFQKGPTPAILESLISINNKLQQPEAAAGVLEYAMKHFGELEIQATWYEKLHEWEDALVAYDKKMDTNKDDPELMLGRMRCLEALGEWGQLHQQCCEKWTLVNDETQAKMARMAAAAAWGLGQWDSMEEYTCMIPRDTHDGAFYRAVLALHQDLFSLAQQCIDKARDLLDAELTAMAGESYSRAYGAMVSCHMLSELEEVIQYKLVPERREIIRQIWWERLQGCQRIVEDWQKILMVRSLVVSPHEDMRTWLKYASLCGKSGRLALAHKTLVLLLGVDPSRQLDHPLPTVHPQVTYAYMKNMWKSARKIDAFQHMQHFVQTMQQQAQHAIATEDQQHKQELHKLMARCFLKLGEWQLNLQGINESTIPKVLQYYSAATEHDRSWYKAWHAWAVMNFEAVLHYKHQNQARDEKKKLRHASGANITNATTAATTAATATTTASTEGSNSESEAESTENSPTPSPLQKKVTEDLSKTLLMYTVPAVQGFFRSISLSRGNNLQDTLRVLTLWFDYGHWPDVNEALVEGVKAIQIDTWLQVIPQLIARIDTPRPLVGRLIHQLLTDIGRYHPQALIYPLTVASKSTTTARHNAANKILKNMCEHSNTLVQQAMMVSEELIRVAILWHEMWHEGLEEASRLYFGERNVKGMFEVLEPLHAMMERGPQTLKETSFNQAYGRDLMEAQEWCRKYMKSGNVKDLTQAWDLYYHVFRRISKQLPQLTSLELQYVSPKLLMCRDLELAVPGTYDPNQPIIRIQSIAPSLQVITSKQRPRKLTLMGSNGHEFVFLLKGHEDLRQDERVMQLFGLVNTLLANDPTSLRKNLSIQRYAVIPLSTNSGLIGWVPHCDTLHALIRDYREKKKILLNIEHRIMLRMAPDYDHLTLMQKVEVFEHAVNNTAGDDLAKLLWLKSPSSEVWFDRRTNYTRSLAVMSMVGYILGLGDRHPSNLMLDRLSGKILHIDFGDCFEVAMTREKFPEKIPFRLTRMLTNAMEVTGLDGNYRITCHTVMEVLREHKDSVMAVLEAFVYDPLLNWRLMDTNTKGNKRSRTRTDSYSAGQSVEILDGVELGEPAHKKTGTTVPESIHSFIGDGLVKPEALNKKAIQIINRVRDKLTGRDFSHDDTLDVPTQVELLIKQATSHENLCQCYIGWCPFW
T2 sequence (P15056 416-766 V600E limits assumed): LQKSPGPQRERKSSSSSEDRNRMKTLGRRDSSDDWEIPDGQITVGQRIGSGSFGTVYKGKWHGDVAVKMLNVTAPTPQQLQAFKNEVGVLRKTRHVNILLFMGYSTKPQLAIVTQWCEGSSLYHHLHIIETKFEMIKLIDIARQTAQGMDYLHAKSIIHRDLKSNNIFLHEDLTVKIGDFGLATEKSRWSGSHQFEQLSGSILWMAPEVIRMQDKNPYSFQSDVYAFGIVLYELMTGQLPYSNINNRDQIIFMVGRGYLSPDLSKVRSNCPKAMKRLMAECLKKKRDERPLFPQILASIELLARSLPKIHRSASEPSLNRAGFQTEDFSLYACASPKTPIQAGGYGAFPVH

SMILES	pIC50 (pERK in A375 cells)	pIC50 (PI3Kα)	pIC50 (A375 cells)	pIC50 (B-RAFV600E)	pIC50 (mTOR kinase)	pIC50 (RKO cells)
COc1cc(-c2cccc(NS(=O)(=O)CCCF)c2F)cc2c(N3CCOCC3)nc(-c3cnc(N)cc3C(F)(F)F)nc12 [Example 36, N-(3-(2-(6-amino-4-(trifluoromethyl)pyridin-3-yl)-8-methoxy-4-morpholinoquinazolin-6-yl)-2-fluorophenyl)-3-fluoropropane-1-sulfonamide]	7.00 to 9.00	6.00 to 7.00	6.00 to 7.00	7.00 to 9.00	–	5.00 to 6.00
CNc1ncc(-c2nc(N3CCOCC3)c3cc(-c4cccc(NS(=O)(=O)CCCF)c4F)cc(OC)c3n2)cn1 [Example 51, 3-fluoro-N-(2-fluoro-3-(8-methoxy-2-(2-(methylamino)pyrimidin-5-yl)-4-morphoIinoquinazolin-6-yl)phenyl)propane-1-sulfonamide]	7.00 to 9.00	–	7.00 to 9.00	7.00 to 9.00	7.00 to 9.00	6.00 to 7.00
CC(C)Nc1ccc(-c2nc(N3CCOCC3)c3nc(-c4cccc(NS(=O)(=O)CCCF)c4F)ccc3n2)cn1 [Example 114, 3-fluoro-N-(2-fluoro-3-(2-(6-(isopropylamino)pyridin-3-yl)-4-morpholinopyrido[3,2-d]pyrimidin-6-yl)phenyl)propane-1-sulfonamide]	7.00 to 9.00	–	6.00 to 7.00	7.00 to 9.00	6.00 to 7.00	6.00 to 7.00
Cc1cc(-c2cccc(NS(=O)(=O)CCCF)c2F)cc2c(N3CCOCC3)nc(-c3ccc(N)nc3)nc12 [Example 117, N-(3-(2-(6-aminopyridin-3-yl)-8-methyl-4-morpholinoquinazolin-6-yl)-2-fluorophenyl)-3-fluoropropane-1-sulfonamide]	7.00 to 9.00	–	6.00 to 7.00	7.00 to 9.00	7.00 to 9.00	5.00 to 6.00
C[C@@H]1COCCN1c1nc(-c2ccc(N)nc2)nc2c(OC3CCCC3)cc(-c3cccc(NS(=O)(=O)CCCF)c3F)cc12 [Example 62, (R)-N-(3-(2-(6-aminopyridin-3-yl)-8-(cyclopentyloxy)-4-(3-methylmorpholino)quinazolin-6-yl)-2-fluorophenyl)-3-fluoropropane-1-sulfonamide]	7.00 to 9.00	–	7.00 to 9.00	7.00 to 9.00	7.00 to 9.00	6.00 to 7.00
CCCS(=O)(=O)Nc1cccc(-c2cc(OC)c3nc(-c4cccc5[nH]ncc45)nc(N4CCOCC4)c3c2)c1F [Example 2, N-(3-(2-(1H-indazol-4-yl)-8-methoxy-4-morpholinoquinazolin-6-yl)-2-fluorophenyl) propane-1-sulfonamide]	6.00 to 7.00	6.00 to 7.00	6.00 to 7.00	7.00 to 9.00	–	–
Nc1ccc(-c2nc(N3CCOCC3)c3cc(-c4cccc(NS(=O)(=O)CCCF)c4F)cc(OC4CCCC4)c3n2)cn1 [Example 53, N-(3-(2-(6-aminopyridin-3-yl)-8-(cyclopentyloxy)-4-morpholinoquinazolin-6-yl)-2-fluorophenyl)-3-fluoropropane-1-sulfonamide]	7.00 to 9.00	–	7.00 to 9.00	7.00 to 9.00	7.00 to 9.00	6.00 to 7.00
CCCS(=O)(=O)Nc1cccc(-c2cc(OC)c3nc(-c4ccc(NCCN)nc4)nc(N4CCOCC4)c3c2)c1F [Example 3]	7.00 to 9.00	6.00 to 7.00	5.00 to 6.00	7.00 to 9.00	–	–
CCCS(=O)(=O)Nc1cccc(-c2cc(C)c3nc(-c4ccc(N)nc4)nc(N4CCOCC4)c3c2)c1F [Example 8, N-(3-(2-(6-aminopyridin-3-yl)-8-methyl-4-morpholinoquinazolin-6-yl)-2-fluorophenyl)propane-1-sulfonamide]	6.00 to 7.00	6.00 to 7.00	6.00 to 7.00	6.00 to 7.00	–	6.00 to 7.00

Now from value to molecule, other results behind:

pIC50 (pERK in A375 cells)	pIC50 (PI3Kα)	pIC50 (A375 cells)	pIC50 (B-RAFV600E)	pIC50 (mTOR kinase)	SMILES	pIC50 (RKO cells)
7.00 to 9.00	6.00 to 7.00	6.00 to 7.00	7.00 to 9.00	–	COc1cc(-c2cccc(NS(=O)(=O)CCCF)c2F)cc2c(N3CCOCC3)nc(-c3cccc4[nH]ncc34)nc12 [Example 37, N-(3-(2-(1H-indazol-4-yl)-8-methoxy-4-morpholinoquinazolin-6-yl)-2-fluorophenyl)-3-fluoropropane-1-sulfonamide]	5.00 to 6.00
7.00 to 9.00	–	7.00 to 9.00	7.00 to 9.00	7.00 to 9.00	CNc1ccc(-c2nc(N3CCOCC3)c3cc(-c4cccc(NS(=O)(=O)CCCF)c4F)cc(OC)c3n2)cn1 [Example 50, 3-fluoro-N-(2-fluoro-3-(8-methoxy-2-(6-(methylamino)pyridin-3-yl)-4-morpholinoquinazolin-6-yl)phenyl)propane-1-sulfonamide]	6.00 to 7.00
–	–	6.00 to 7.00	7.00 to 9.00	6.00 to 7.00	Cc1cc(-c2cccc(NS(=O)(=O)CCCF)c2F)cc2c(N3CCOCC3)nc(-c3cccc4[nH]ncc34)nc12 [Example 118, N-(3-(2-(1H-indazol-4-yl)-8-methyl-4-morpholinoquinazolin-6-yl)-2-fluorophenyl)-3-fluoropropane-1-sulfonamide]	5.00 to 6.00
7.00 to 9.00	6.00 to 7.00	5.00 to 6.00	7.00 to 9.00	–	O=S(=O)(CCCF)Nc1cccc(-c2ccc3nc(-c4cnc(NCCCO)nc4)nc(N4CCOCC4)c3n2)c1F [Example 110, 3-fluoro-N-(2-fluoro-3-(2-(2-((3-hydroxypropyl)amino)pyrimidin-5-yl)-4-morpholinopyrido[3,2-d]pyrimidin-6-yl)phenyl)propane-1-sulfonamide]	–
